This is an account of results in ChEMBL document CHEMBL1201862, “PubChem BioAssay data set” (2004).

Each structure is given as a SMILES string.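 Cultured in 96-well plates, cells were exposed to test compound for 48 hours across five concentrations. GI50 marks 50% less growth.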 Calls of active or inactive are those of the source. No stated cut-off is given here; in the data, active = GI50 up to about 1.1 µM and inactive = higher. Non-standard residues stand in square brackets, D forms with d. Residues, ends and D or L forms follow the SMILES beside them. ξ: configuration not given here. Pen = CC(C)(S)[C@H](N)C(=O)O; ξL = CC(C)CC(N)C(=O)O Bounds are passed on as bounds.

Test systems include KM-20L2; SF-539; M19-MEL; SNB-19; TK-10; HCT-15; UO-31; SK-MEL-2; A498; Malme-3M; HOP-92; K562; NCI-H23; SN12C; SW-620; OVCAR-3; SR; 786-0; RXF 393; MCF7.
Test in all cases: growth of human tumour cells (NCI), 48 h

As to `C=CC1(c2ccccc2Cl)N/C(=C/OCC)CO1` (stereo not drawn), the GI50 with KM-20L2 was > 100 µM (inactive); with SF-539 it was > 100 µM (inactive); in the test on M19-MEL, > 100 µM (inactive); in the test with SNB-19, > 100 µM (inactive); in the test with TK-10, > 100 µM (inactive); in the test with HCT-15, above 100 µM. In addition, the GI50 with UO-31, with SK-MEL-2, with A498, in the test with Malme-3M, in the test on HOP-92 and in the test on K562 was > 100 µM (inactive) each time. In addition, the GI50 with NCI-H23 is > 100 µM (inactive); in the test on SN12C it was > 100 µM (inactive); in the test with SW-620, 13.2 µM (inactive); in the test with OVCAR-3, > 100 µM (inactive); in the test with SR, > 100 µM (inactive); in the test with 786-0, 51.5 µM (inactive). The GI50 in the test on RXF 393 is 10.3 µM (inactive).
On to `CSCC[C@H](NC(=O)C(CC(C)C)NC(=O)[C@H](Cc1c[nH]cn1)NC(=O)CNC(=O)[C@@H](NC(=O)[C@@H](C)NC(=O)[C@H](Cc1c[nH]c2ccccc12)NC(=O)[C@H](CCC(N)=O)NC(=O)[C@@H](N)CC(N)=O)C(C)(C)SC)C(N)=O` (stereo partly drawn) (H-NQW[dA][Pen](Me)GH[ξL]M-NH2), for which the GI50 with KM-20L2 is > 100 µM (inactive); in the test on SF-539, > 100 µM (inactive); in the test with M19-MEL, > 100 µM (inactive); with SNB-19, > 100 µM (inactive); in the test on HCT-15, above 100 µM; with UO-31, > 100 µM (inactive). The GI50 with SK-MEL-2, in the test on A498, in the test on Malme-3M, in the test on HOP-92, with K562 and in the test on NCI-H23 was > 100 µM (inactive) throughout. The GI50 in the test on SN12C, in the test on SW-620, with OVCAR-3, with MCF7 and in the test with RXF 393 was > 100 µM (inactive) each time.
For `CCCCCCSc1nc(N)nc2nc[nH]c12`, the GI50 in the test on KM-20L2 is 39.7 µM (inactive); with SF-539 it was 35.3 µM (inactive); in the test with M19-MEL it was 47.1 µM (inactive); in the test with SNB-19 it was 39.4 µM (inactive); in the test on HCT-15, 35.4 µM; with UO-31, 24.3 µM (inactive). The GI50 with SK-MEL-2 is 18.4 µM (inactive); with A498 it was 26.9 µM (inactive); in the test with Malme-3M, 35.7 µM (inactive); in the test on HOP-92, 28.8 µM (inactive); in the test with K562, 32 µM (inactive); with NCI-H23, 31.8 µM (inactive). The GI50 in the test on SN12C was 36.6 µM (inactive); in the test with SW-620, 56.2 µM (inactive); in the test with OVCAR-3 it was 40.2 µM (inactive); in the test with MCF7, 30.5 µM (inactive); in the test with RXF 393 it was 32.7 µM (inactive).
On to `C=C1C[C@@H](O)C[C@@]2(C)C[C@@H]3OC(=O)C(=C)[C@@H]3C[C@H]12`, for which the GI50 in the test on KM-20L2 was 5.83 µM (inactive); in the test on SF-539 it was 9.68 µM (inactive); in the test on M19-MEL it was 20.4 µM (inactive); with SNB-19, 5.21 µM (inactive); with HCT-15, 4.42 µM; in the test on UO-31, 4.85 µM (inactive). In addition, the GI50 with SK-MEL-2 is 11.9 µM (inactive); with A498, 12.4 µM (inactive); in the test with Malme-3M, 3.37 µM (inactive); in the test on HOP-92, 13.1 µM (inactive); in the test with K562 it was 4.19 µM (inactive); with NCI-H23 it was 15.9 µM (inactive). Further, the GI50 with SN12C was 5.57 µM (inactive); with SW-620, 5.42 µM (inactive); in the test with OVCAR-3 it was 11.2 µM (inactive); with MCF7 it was 3.78 µM (inactive); in the test with RXF 393, 6.34 µM (inactive).
Regarding `CN(C)CCNC(=O)c1cc(Cl)cc2cc3ccccc3nc12`, the GI50 with KM-20L2 was 0.422 µM (active); in the test on SF-539, 1.62 µM (inactive); with M19-MEL, 1.3 µM (inactive); in the test with SNB-19, 1.33 µM (inactive); with HCT-15 it was 0.755 µM; with UO-31 it was 1.02 µM (active). Also, the GI50 was 1.98 µM (inactive) with SK-MEL-2; 0.179 µM (active) with A498; 5.73 µM (inactive) in the test on Malme-3M; 1.01 µM (active) in the test with K562; 1.39 µM (inactive) in the test with NCI-H23; 0.731 µM (active) in the test with SN12C. For the same compound, the GI50 in the test on SW-620 is 0.519 µM (active); with OVCAR-3 it was 4.71 µM (inactive); in the test with MCF7 it was 0.757 µM (active); with RXF 393, 1.06 µM (active).
For `CN(C)CCOc1cc2c(c3ccccc13)-c1ccccc1C2=O`, the GI50 with KM-20L2 was 2.1 µM (inactive); with SF-539, 1.76 µM (inactive); with M19-MEL, 1.35 µM (inactive); in the test on SNB-19, 2.7 µM (inactive); in the test on HCT-15, 1.18 µM; in the test with UO-31, 1.5 µM (inactive). For the same compound, the GI50 with SK-MEL-2 is 1.95 µM (inactive); in the test with A498, 6.68 µM (inactive); with Malme-3M it was 2.19 µM (inactive); in the test on HOP-92, 0.933 µM (active); with K562, 1.74 µM (inactive); with NCI-H23 it was 2.36 µM (inactive). Also, the GI50 was 1.58 µM (inactive) in the test on SN12C; 1.39 µM (inactive) in the test on SW-620; 1.9 µM (inactive) in the test with OVCAR-3; 1.1 µM (active) with MCF7; 2.86 µM (inactive) with RXF 393.
Consider `Cc1cc(O)c2c(c1O)C(=O)C13C(=C(O)C4C(O)C1C1C(O)C3C(O)=C3C(=O)c5c(O)cc(C)c(O)c5C(=O)C341)C2=O` (stereo not drawn), for which the GI50 was 4.28 µM (inactive) with KM-20L2; 0.134 µM (active) with SF-539; 0.0545 µM (active) in the test on M19-MEL; 0.668 µM (active) with SNB-19; 0.0367 µM with HCT-15; 0.0392 µM (active) in the test on UO-31. The GI50 in the test on SK-MEL-2 is 0.172 µM (active); with A498, 0.0362 µM (active); in the test with Malme-3M, 0.0428 µM (active); in the test with HOP-92, 0.24 µM (active); in the test on K562 it was 0.0322 µM (active); in the test with NCI-H23, 0.207 µM (active). Besides, the GI50 is 0.0471 µM (active) with SN12C; 0.0507 µM (active) with SW-620; 3.56 µM (inactive) in the test on OVCAR-3; 0.0577 µM (active) with MCF7; 0.0491 µM (active) in the test with RXF 393.
For `COC(=O)C(/C(=N/NC(N)=S)C(=O)Nc1ccccc1[N+](=O)[O-])c1cnc2ccccc2n1` (stereo not drawn), the GI50 in the test with KM-20L2 was > 100 µM (inactive); in the test with SF-539, > 100 µM (inactive); with M19-MEL, > 100 µM (inactive); in the test on SNB-19, > 100 µM (inactive); with TK-10 it was > 100 µM (inactive); in the test with HCT-15, above 100 µM. The GI50 with UO-31, in the test with SK-MEL-2, with A498, with Malme-3M, in the test on HOP-92 and in the test on K562 was > 100 µM (inactive) throughout. Besides, the GI50 with NCI-H23, with SN12C, in the test with SW-620, with SR, in the test with 786-0 and in the test with RXF 393 was > 100 µM (inactive) each time.
